In patent US20240299378A1, “EMULSION FOR USE IN THE TREATMENT OF ROSACEA” (EXINOV, priority 2021, published 2024):

System: cell proliferation in the local lymph nodes
Assay: mouse Local Lymph Node Assay (LLNA), 3HTdR incorporation
Conditions: topical on ears days 1-3; Em-A 100% (w/v) in AOO; HCA 25% (w/v) in AOO
Excerpt: Preliminary tests: Based on the results of the Preliminary Compatibility Test, the tested emulsions characteristics (e.g., when the emulsion is a dense cream), its use and following the Organisation for Economic Co-operation and Development (OECD) Guidelines, the best vehicle for the tested emulsions was considered as AOO (acetone:olive oil 4:1 (v/v) mixture). The tested emulsions at 100% (w/v) were suitable for the test using AOO as vehicle. […] Based on the observations recorded in this test, the 100% (w/v) in AOO dose was selected as top dose for the main test. […] Tested emulsions were applied on the dorsal surface of ears of experimental animals (25 μL/ear using positive displacement pipette) for three consecutive days (days 1, 2 and 3). There was no treatment on days 4, 5 and 6. The cell proliferation in the local lymph nodes was assessed by measuring the incorporation of tritiated methyl thymidine (3HTdR) and the values obtained were used to calculate stimulation indices (SI) in comparison with the control group.

Compound: CCCCCCC(C=O)=Cc1ccccc1 [HCA, α-hexylcinnamaldehyde]
- stimulation index (SI): 12.7
